From PubChem BioAssay (NCI)
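Cultured in 96-well plates, cells were exposed to test compound for 48 hours across five concentrations. TGI: total growth inhibition.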

Legend:
Assay in all cases: NCI tumour cell line growth inhibition, 48 h
786-0 renal = test system: 786-0 renal
A498 renal = test system: A498 renal
A549 NSCLC = test system: A549 NSCLC
ACHN renal = test system: ACHN renal
CAKI-1 renal = test system: CAKI-1 renal
CCRF-CEM leukemia = test system: CCRF-CEM leukemia
COLO 205 colon = test system: COLO 205 colon
DLD-1 colon = test system: DLD-1 colon
DMS 273 small cell lung = test system: DMS 273 small cell lung
EKVX NSCLC = test system: EKVX NSCLC
HCC-2998 colon = test system: HCC-2998 colon
HCT-15 colon = test system: HCT-15 colon
HL-60(TB) leukemia = test system: HL-60(TB) leukemia
HOP-18 NSCLC = test system: HOP-18 NSCLC
HOP-62 NSCLC = test system: HOP-62 NSCLC
HOP-92 NSCLC = test system: HOP-92 NSCLC
HT29 colon = test system: HT29 colon
IGROV1 ovarian = test system: IGROV1 ovarian
K-562 leukemia = test system: K-562 leukemia
KM20L2 colon = test system: KM20L2 colon
LOX IMVI melanoma = test system: LOX IMVI melanoma
LXFL 529 NSCLC = test system: LXFL 529 NSCLC
M14 melanoma = test system: M14 melanoma
M19-MEL melanoma = test system: M19-MEL melanoma
MOLT-4 leukemia = test system: MOLT-4 leukemia
NCI-H23 lung = test system: NCI-H23 lung
NCI-H460 lung = test system: NCI-H460 lung
OVCAR-3 ovarian = test system: OVCAR-3 ovarian
OVCAR-4 ovarian = test system: OVCAR-4 ovarian
OVCAR-8 ovarian = test system: OVCAR-8 ovarian
RPMI-8226 leukemia = test system: RPMI-8226 leukemia
RXF 393 renal = test system: RXF 393 renal
RXF-631 renal = test system: RXF-631 renal
SF-295 CNS = test system: SF-295 CNS
SF-539 CNS = test system: SF-539 CNS
SK-MEL-28 melanoma = test system: SK-MEL-28 melanoma
SK-MEL-5 melanoma = test system: SK-MEL-5 melanoma
SK-OV-3 ovarian = test system: SK-OV-3 ovarian
SN12C renal = test system: SN12C renal
SNB-19 CNS = test system: SNB-19 CNS
SNB-75 CNS = test system: SNB-75 CNS
SNB-78 CNS = test system: SNB-78 CNS
SW-620 colon = test system: SW-620 colon
TK-10 renal = test system: TK-10 renal
U251 CNS = test system: U251 CNS
UACC-257 melanoma = test system: UACC-257 melanoma
UACC-62 melanoma = test system: UACC-62 melanoma
XF 498 CNS = test system: XF 498 CNS
DU-145 prostate = test system: DU-145 prostate
HCT-116 colon = test system: HCT-116 colon
KM12 colon = test system: KM12 colon
MALME-3M melanoma = test system: MALME-3M melanoma
NCI-H226 lung = test system: NCI-H226 lung
NCI-H522 lung = test system: NCI-H522 lung
OVCAR-5 ovarian = test system: OVCAR-5 ovarian
SF-268 CNS = test system: SF-268 CNS
SK-MEL-2 melanoma = test system: SK-MEL-2 melanoma
UO-31 renal = test system: UO-31 renal

Question: What does the source list for `COc1ccc(C(c2ccc(C(C)C)cc(=O)c2O)c2c(O)cc3oc(-c4ccccc4)cc(=O)c3c2O)cc1` (stereo unspecified)?
Answer: TGI (786-0 renal): 14.1 µM; TGI (A498 renal): 51.5 µM; TGI (A549 NSCLC): > 100 µM; TGI (ACHN renal): 45.6 µM; TGI (CAKI-1 renal): 36.3 µM; TGI (CCRF-CEM leukemia): > 100 µM; TGI (COLO 205 colon): 25.9 µM; TGI (DLD-1 colon): > 100 µM; TGI (DMS 273 small cell lung): 22 µM; TGI (EKVX NSCLC): > 100 µM; TGI (HCC-2998 colon): 33.6 µM; TGI (HCT-15 colon): 43.6 µM; TGI (HL-60(TB) leukemia): 28.8 µM; TGI (HOP-18 NSCLC): 80.4 µM; TGI (HOP-62 NSCLC): 9.67 µM; TGI (HOP-92 NSCLC): 3.53 µM; TGI (HT29 colon): 62.9 µM; TGI (IGROV1 ovarian): 24.4 µM; TGI (K-562 leukemia): 64.3 µM; TGI (KM20L2 colon): > 100 µM; TGI (LOX IMVI melanoma): 47.7 µM; TGI (LXFL 529 NSCLC): 71.6 µM; TGI (M14 melanoma): 22.2 µM; TGI (M19-MEL melanoma): 26.7 µM; TGI (MOLT-4 leukemia): 48.4 µM; TGI (NCI-H23 lung): 55.7 µM; TGI (NCI-H460 lung): 15.8 µM; TGI (OVCAR-3 ovarian): 19 µM; TGI (OVCAR-4 ovarian): 23 µM; TGI (OVCAR-8 ovarian): > 100 µM; TGI (RPMI-8226 leukemia): 37.3 µM; TGI (RXF 393 renal): 34.2 µM; TGI (RXF-631 renal): > 100 µM; TGI (SF-295 CNS): 16.7 µM; TGI (SF-539 CNS): 21.5 µM; TGI (SK-MEL-28 melanoma): > 100 µM; TGI (SK-MEL-5 melanoma): 29.4 µM; TGI (SK-OV-3 ovarian): 55.4 µM; TGI (SN12C renal): 70.9 µM; TGI (SNB-19 CNS): 16.7 µM; TGI (SNB-75 CNS): > 100 µM; TGI (SNB-78 CNS): > 100 µM; TGI (SW-620 colon): > 100 µM; TGI (TK-10 renal): 90.3 µM; TGI (U251 CNS): 22.3 µM; TGI (UACC-257 melanoma): 72.4 µM; TGI (UACC-62 melanoma): 42.9 µM; TGI (XF 498 CNS): 37 µM

Question: What does the source list for `O=C1CCCC/C1=C/C=C/c1ccccc1`?
Answer: TGI (786-0 renal): > 100 µM; TGI (A498 renal): > 100 µM; TGI (A549 NSCLC): > 100 µM; TGI (ACHN renal): > 100 µM; TGI (CAKI-1 renal): > 100 µM; TGI (CCRF-CEM leukemia): > 100 µM; TGI (COLO 205 colon): > 100 µM; TGI (DLD-1 colon): > 100 µM; TGI (DU-145 prostate): > 100 µM; TGI (HCC-2998 colon): > 100 µM; TGI (HCT-116 colon): > 100 µM; TGI (HL-60(TB) leukemia): 62.8 µM; TGI (HOP-18 NSCLC): > 100 µM; TGI (HOP-92 NSCLC): > 100 µM; TGI (HT29 colon): > 100 µM; TGI (IGROV1 ovarian): > 100 µM; TGI (K-562 leukemia): > 100 µM; TGI (KM12 colon): > 100 µM; TGI (KM20L2 colon): > 100 µM; TGI (LOX IMVI melanoma): > 100 µM; TGI (LXFL 529 NSCLC): > 100 µM; TGI (M14 melanoma): > 100 µM; TGI (M19-MEL melanoma): > 100 µM; TGI (MALME-3M melanoma): > 100 µM; TGI (MOLT-4 leukemia): > 100 µM; TGI (NCI-H226 lung): > 100 µM; TGI (NCI-H23 lung): > 100 µM; TGI (NCI-H460 lung): > 100 µM; TGI (NCI-H522 lung): 61.2 µM; TGI (OVCAR-3 ovarian): > 100 µM; TGI (OVCAR-4 ovarian): > 100 µM; TGI (OVCAR-5 ovarian): > 100 µM; TGI (OVCAR-8 ovarian): > 100 µM; TGI (RPMI-8226 leukemia): > 100 µM; TGI (RXF 393 renal): > 100 µM; TGI (RXF-631 renal): > 100 µM; TGI (SF-268 CNS): > 100 µM; TGI (SF-295 CNS): > 100 µM; TGI (SF-539 CNS): > 100 µM; TGI (SK-MEL-2 melanoma): > 100 µM; TGI (SK-MEL-28 melanoma): > 100 µM; TGI (SK-MEL-5 melanoma): > 100 µM; TGI (SK-OV-3 ovarian): > 100 µM; TGI (SN12C renal): > 100 µM; TGI (SNB-19 CNS): > 100 µM; TGI (SNB-75 CNS): > 100 µM; TGI (SW-620 colon): > 100 µM; TGI (TK-10 renal): > 100 µM; TGI (U251 CNS): > 100 µM; TGI (UACC-257 melanoma): > 100 µM; TGI (UACC-62 melanoma): > 100 µM; TGI (UO-31 renal): > 100 µM; TGI (XF 498 CNS): > 100 µM
